Experimental findings from patent US20100022491A1, “4-HYDROXY-2-OXO-2,3-DIHYDRO-1,3-BENZOTHIAZOL-7YL COMPOUNDS FOR MODULATION OF B2-ADRENORECEPTOR ACTIVITY” (ASTRAZENECA AB, priority 2006, published 2010) are described below.

A word on the IC50: it is the concentration at which inhibition is half-maximal.

Structures can show the parent of a compound that is named as a salt.

In test [1] the target is T1, recombinant human adrenergic beta 1 receptors (Homo sapiens, UniProt P08588).
T1 construct: purchased Euroscreen
T1 sequence (P08588 whole entry): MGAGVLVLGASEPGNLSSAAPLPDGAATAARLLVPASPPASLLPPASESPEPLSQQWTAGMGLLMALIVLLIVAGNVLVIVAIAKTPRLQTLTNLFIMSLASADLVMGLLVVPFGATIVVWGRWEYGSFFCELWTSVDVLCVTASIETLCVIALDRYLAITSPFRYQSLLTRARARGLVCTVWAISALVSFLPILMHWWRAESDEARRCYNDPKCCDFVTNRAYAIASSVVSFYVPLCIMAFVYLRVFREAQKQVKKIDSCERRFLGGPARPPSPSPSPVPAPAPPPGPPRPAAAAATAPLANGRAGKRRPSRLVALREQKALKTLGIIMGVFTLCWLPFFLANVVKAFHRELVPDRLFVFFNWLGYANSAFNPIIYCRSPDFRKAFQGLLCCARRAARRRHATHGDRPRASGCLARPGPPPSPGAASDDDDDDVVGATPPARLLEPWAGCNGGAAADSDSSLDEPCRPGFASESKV
Put plainly: Adrenergic β1 selectivity binding assay ([125I]-Iodocyanopindolol). To be noted: inhibition of [125I]-Iodocyanopindolol (0.036 nM) binding; read-out: β1 bind p IC50 (converted). A digest of the protocol: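 Recombinant human β1 membranes in HEPES buffer pH 7.4 with 120 mM NaCl were incubated 2 hours at room temperature with 0.036 nM [^125I]-Iodocyanopindolol. Nonspecific binding defined by 10 μM propranolol; bound radioactivity counted after filtration. pIC50 from four-parameter logistic fit.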

The next test deals with T2, Adrenergic β2 (Homo sapiens, UniProt P07550).
T2 construct: Adherent H292 cells were removed from tissue culture flasks; endogenous in cells; host or cells: H292 cells
T2 sequence (P07550 whole entry): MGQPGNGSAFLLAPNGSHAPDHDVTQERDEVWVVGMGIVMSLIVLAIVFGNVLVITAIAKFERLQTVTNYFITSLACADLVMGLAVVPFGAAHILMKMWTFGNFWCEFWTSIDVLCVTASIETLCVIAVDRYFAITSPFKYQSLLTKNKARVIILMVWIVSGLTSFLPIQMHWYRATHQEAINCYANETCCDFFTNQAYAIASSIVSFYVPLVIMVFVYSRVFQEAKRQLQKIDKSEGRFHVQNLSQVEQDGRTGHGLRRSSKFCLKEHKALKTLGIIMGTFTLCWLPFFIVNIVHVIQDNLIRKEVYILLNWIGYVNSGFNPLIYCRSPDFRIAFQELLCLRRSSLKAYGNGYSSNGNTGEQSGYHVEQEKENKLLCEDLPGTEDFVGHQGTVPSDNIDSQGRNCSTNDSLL
Put plainly: Adrenergic β2 mediated cAMP production in H292 cells. In kind it is cell-based. To be noted: for EC50: H292 cells, cAMP by AlphaScreen, 60 minutes at room temperature, rolipram 300 μM, read-out: β2 pEC50 (converted); for β2 Int Act: Intrinsic Activity as a fraction relative to the maximum activity determined for formoterol. The method in brief: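 H292 cells pretreated 10 min with rolipram (300 μM final), then exposed to agonist 60 min at room temperature in HEPES-buffered HBSS, 1.6% DMSO final. Lysate cAMP quantified by AlphaScreen against a cAMP standard curve; four-parameter fit gives pEC50 and intrinsic activity relative to formoterol maximum.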

With `O=C(CCNCCc1ccccc1)N(CCNCCc1ccc(O)c2[nH]c(=O)sc12)C1CCC(F)(F)CC1` [Example 4, N-(4,4-Difluorocyclohexyl)-N-(2-{[2-(4-hydroxy-2-oxo-2,3-dihydro-1,3-benzothiazol-7-yl)ethyl]amino}ethyl)-N^3-(2-phenylethyl)-β-alaninamide bis-trifluoroacetic acid salt], in test [1], the IC50 was 2510 nM. In addition, on Adrenergic β2, the EC50 is 1 nM and the “β2 Int Act” value amounted to 0.79.

Take `O=C(CCNCCc1ccccc1)N(CCNCCc1ccc(O)c2[nH]c(=O)sc12)C1CCCCC1` [Example 5, N-Cyclohexyl-N-(2-{[2-(4-hydroxy-2-oxo-2,3-dihydro-1,3-benzothiazol-7-yl)ethyl]amino}ethyl)-N^3-(2-phenylethyl)-β-alaninamide bis-trifluoroacetic acid salt]: in test [1], the half-maximal inhibitory concentration (IC50) is 5010 nM. At Adrenergic β2, the EC50 is 2.51 nM and the “β2 Int Act” value was 0.83.

For `Cc1cccc(CCNCCC(=O)N(CCNCCc2ccc(O)c3[nH]c(=O)sc23)C2CCCCCC2)c1` [Example 85, N^1-Cycloheptyl-N^1-(2-{[2-(4-hydroxy-2-oxo-2,3-dihydro-1,3-benzothiazol-7-yl)ethyl]amino}ethyl)-N^3-[2-(3-methylphenyl)ethyl]-β-alaninamide bis-trifluoroacetic acid salt], in test [1], the IC50 is 2510 nM. Further, at Adrenergic β2, the EC50 is 6.31 nM and the “β2 Int Act” value was determined as 0.65.

For `COc1ccc(CCNCCC(=O)N(CCNCCc2ccc(O)c3[nH]c(=O)sc23)C2CCCCCC2)cc1OC` [Example 86, N^1-Cycloheptyl-N^3-[2-(3,4-dimethoxyphenyl)ethyl]-N^1-(2-{[2-(4-hydroxy-2-oxo-2,3-dihydro-1,3-benzothiazol-7-yl)ethyl]amino}ethyl)-β-alaninamide bis-trifluoroacetic acid salt], in test [1], the IC50 is 2510 nM. Besides, at Adrenergic β2, the EC50 is 39.8 nM and the “β2 Int Act” value worked out at 0.43.

`O=C(CCNCCc1ccc(O)c2[nH]c(=O)sc12)N(CCNCCc1ccc(O)c2[nH]c(=O)sc12)C1CCCCCC1` [Example 87, bis-trifluoroacetic acid salt]: the IC50 in test [1] was 794 nM. At Adrenergic β2, the EC50 was 3.16 nM and the “β2 Int Act” value came out at 0.72.

In the case of `O=C(CCNCCc1ccc2c(c1)OCCO2)N(CCNCCc1ccc(O)c2[nH]c(=O)sc12)C1CCCCCC1` [Example 88, N-Cycloheptyl-N^3-[2-(2,3-dihydro-1,4-benzodioxin-6-yl)ethyl]-N^1-(2-{[2-(4-hydroxy-2-oxo-2,3-dihydro-1,3-benzothiazol-7-yl)ethyl]amino}ethyl)-β-alaninamide bis-trifluoroacetic acid salt], the IC50 in test [1] was 6310 nM. Besides, at Adrenergic β2, the EC50 was 25.1 nM and the “β2 Int Act” value was 0.37.

On to `O=C(CCNCCc1ccc(O)c(Cl)c1)N(CCNCCc1ccc(O)c2[nH]c(=O)sc12)C1CCCCC1` [Example 89, N^3-[2-(3-chloro-4-hydroxyphenyl)ethyl]-N^1-cyclohexyl-N^1-(2-{[2-(4-hydroxy-2-oxo-2,3-dihydro-1,3-benzothiazol-7-yl)ethyl]amino}ethyl)-β-alaninamide bis-trifluoroacetic acid salt], for which the IC50 in test [1] is 3160 nM. Also, at Adrenergic β2, the EC50 is 1.26 nM and the “β2 Int Act” value is reported as 0.9.

Take `O=C(CCNCCc1cccc(O)c1)N(CCNCCc1ccc(O)c2[nH]c(=O)sc12)C1CCCCCCC1` [Example 90, N^1-Cyclooctyl-N^1-(2-{[2-(4-hydroxy-2-oxo-2,3-dihydro-1,3-benzothiazol-7-yl)ethyl]amino}ethyl)-N^3-[2-(3-hydroxyphenyl)ethyl]-β-alaninamide bis-trifluoroacetic acid salt]: the IC50 in test [1] was 200 nM. Moreover, at Adrenergic β2, the EC50 was 3.98 nM and the “β2 Int Act” value came out at 0.71.

Take `CC1(C)CCC(N(CCNCCc2ccc(O)c3[nH]c(=O)sc23)C(=O)CCNCCc2cccc(O)c2)CC1` [Example 91, N^1-(4,4-Dimethylcyclohexyl)-N^1-(2-{[2-(4-hydroxy-2-oxo-2,3-dihydro-1,3-benzothiazol-7-yl)ethyl]amino}ethyl)-N^3-[2-(3-hydroxyphenyl)ethyl]-β-alaninamide bis-trifluoroacetic acid salt]: in test [1], the concentration for half-maximal inhibition (IC50) is 3980 nM. Further, at Adrenergic β2, the EC50 is 3.98 nM and the “β2 Int Act” value was determined as 0.75.
